A short description of assay [1]: Inhibition of PKC.
In another assay the test system is MCF. Description: Cytotoxicity against human MCF cells. Format: functional, cell-based.

Converted amounts (≈) assume the structure as drawn. The source made the active and inactive calls. The rule behind the calls is not given here. A value given as a limit tells only on which side of the number the result lay.

The text below walks through data of ChEMBL document CHEMBL1149037, “Vanicosides A and B, protein kinase C inhibitors from Polygonum pensylvanicum” (J Nat Prod, 1994).

A word on the IC50: it is the point on the concentration scale where inhibition reaches its midpoint. Higher therefore signals weaker potency in that assay.

`COc1cc(/C=C/C(=O)OC[C@H]2O[C@@H](O[C@]3(COC(=O)/C=C/c4ccc(OC(C)=O)cc4)O[C@H](COC(=O)/C=C/c4ccc(OC(C)=O)cc4)[C@@H](OC(C)=O)[C@@H]3OC(=O)/C=C/c3ccc(OC(C)=O)cc3)[C@H](OC(C)=O)[C@@H](OC(C)=O)[C@@H]2OC(C)=O)ccc1OC(C)=O`: the concentration for half-maximal inhibition (IC50) in assay [1] was > 50 µg/mL.

Compound `COc1cc(/C=C/C(=O)OC[C@H]2O[C@@H](O[C@]3(COC(=O)/C=C/c4ccc(O)cc4)O[C@H](COC(=O)/C=C/c4ccc(O)cc4)[C@@H](O)[C@@H]3OC(=O)/C=C/c3ccc(O)cc3)[C@H](OC(C)=O)[C@@H](O)[C@@H]2O)ccc1O` [VANICOSIDE A] came in with an IC50 in assay [1] of 44 µg/mL (≈ 44 µM). Also, the result in the assay on MCF was Active. Taken in the same sequence, the figures for `COc1cc(/C=C/C(=O)OC[C@H]2O[C@H](O[C@]3(COC(=O)/C=C/c4ccc(O)cc4)O[C@H](COC(=O)/C=C/c4ccc(O)cc4)[C@@H](O)[C@@H]3OC(=O)/C=C/c3ccc(O)cc3)[C@H](O)[C@@H](O)[C@@H]2O)ccc1O` [VANICOSIDE B] were 31 µg/mL (≈ 32.4 µM) and “Active”.
